Test results: patent EP2141163A1, “Substituted thiazolidinones, their production and utilisation as medicine” (Bayer Schering Pharma Aktiengesellschaft, priority 2008, dated 2010)

Columns and labels:
[1] = tested on: DU145; test: Proliferation assay (crystal violet staining), DU145; format: cell-based, human; conditions: Homo sapiens, DU-145, comparison with prior art (Tabelle 4), read-out: Inhibition IC50 [M] (DU145)
Procedure: (§1) Kultivierte humane Tumorzellen (MCF7, […] menschliche Mammakarzinomazellen, bezogen von ATCC HTB22; NCI-H460, menschliche nicht kleinzellige Lungenkarzinomazellen, ATCC HTB-177; DU 145, hormonunabhängige menschliche Prostatakarzinomazellen, ATCC HTB-81; HeLa-MaTu, humane Cervixkarzinomazellen, bezogen von EPO-GmbH, Berlin,) werden in einer Dichte von 5000 (MCF7, DU145) bzw. 3000 (NCI-H460, HeLa-MaTu) Zellen/Messpunkt in einer 96-Loch Multititerplatte in 200 µl des entsprechenden Wachstumsmediums ausplattiert. Nach 24 Stunden werden die Zellen einer Platte (Nullpunkt-Platte) mit Kristallviolett gefärbt (s.u.), während das Medium der anderen Platten durch frisches Kulturmedium (200 µl), dem die Testsubstanzen in verschiedenen Konzentrationen (0 µM, sowie im Bereich 0,01 - 30 µM; die finale Konzentration des Lösungsmittels Dimethylsulfoxid beträgt 0,5%) zugesetzt sind, ersetzt. Die Zellen werden für 4 Tage in Anwesenheit der Testsubstanzen inkubiert. Die Zellproliferation wird durch Färbung der Zellen mit Kristallviolett bestimmt: Die Zellen werden durch Zugabe von 20 µl/Messpunkt einer 11%igen Glutaraldehyd-Lösung 15 min bei Raumtemperatur fixiert. Nach dreimaligem Waschen der fixierten Zellen mit Wasser werden die Platten bei Raumtemperatur getrocknet. Die Zellen werden durch Zugabe von 100 µl/Messpunkt einer 0,1%igen Kristallviolett-Lösung (pH durch Zugabe von Essigsäure auf pH3 eingestellt) gefärbt. Nach dreimaligem Waschen der gefärbten Zellen mit Wasser werden die Platten bei Raumtemperatur getrocknet. Der Farbstoff wird durch Zugabe von 100 µl/Messpunkt einer 10%igen Essigsäure-Lösung gelöst. Die Extinktion wird photometrisch bei einer Wellenlänge von 595 nm bestimmt. Die prozentuale Änderung des Zellwachstums wird durch Normalisierung der Messwerte auf die Extinktionwerte der Nullpunktplatte (=0%) und die Extinktion der unbehandelten (0 µM) Zellen (=100%) berechnet. IC50-Werte werden nach einer 4-Parameterkurvenanpassung mit Hilfe eines Firmeneigenen Computerprogramms berechnet.

[2] = tested on: NCI-H460; test: Proliferation assay (crystal violet staining), NCI-H460; format: cell-based, human; conditions: Homo sapiens, comparison with prior art (Tabelle 4), read-out: Inhibition IC50 [M] (NCI-H460)
Procedure: as §1

[3] = tested on: MCF-7; test: Proliferation assay (crystal violet staining), MCF-7; format: cell-based, human; conditions: Homo sapiens, MCF7, comparison with prior art (Tabelle 4), read-out: Inhibition IC50 [M] (MCF-7)
Procedure: as §1

[4] = target: T1, PLK-1 (Homo sapiens, UniProt P53350); test: PLK-1 enzyme assay at 10 mM ATP (indirect HTRF assay); format: biochemical; conditions: comparison with prior art (Tabelle 3), read-out: Inhibition PLK-1 IC50 [M] (10 mM ATP)
T1 construct: Fusionsprotein bestehend aus GST und Plk (Kinase Domäne 33-345; MW 36 kDa, conc 0,8 µg/µl); GST; made in house; host or cells: Hi5 insect cells
Procedure: PLK Enzym-Assay (10 mM ATP)
Für den Kinaseassay wird aus Insektenzellen (Hi5) exprimiertes, durch Glutathion-Sepharose-Affinitätschromatographie und anschließender Gel-filtration (Suerdex 75) gereinigtes rekombinantes Fusionsprotein bestehend aus GST und Plk (Kinase Domäne 33-345; MW 36 kDa, conc 0,8 µg/µl) verwendet. Aliqots hiervon werden in flüssigem Stickstoff weggefroren und bei -80°C gelagert und nach dem Auftauen nur einmal verwendet.
Bei dem verwendeten Assay handelt es sich um einen indirekten HTRF-Assay, bei dem folgende Materialien und Verfahrensweisen zum Einsatz kamen. Als Substrat für die Kinasereaktion wird das biotinylierte Peptid Btn-Ahx-KKLNRTLSFAEPG-Amid x TFA, von Biosyntan, Probennr.: 6178.1 (C-Terminus in Amidform) verwendet. Hierbei handelt es sich um eine artifizielle Sequenz, die von keinem bekannten Protein abgeleitet wurde.
50 nl der in 100% Dimethylsulfoxid (DMSO) gelösten Testverbindungen (Endkonzentrationen : 0 µM und Konzentrationen im Bereich von 0,001 - 20 µM) werden mit 2 µl Enzym Arbeitslösung (0,039 ng/µl Plk-1 im Arbeitspuffer [25 mM MgCl2; 1mM DTT; 50 mM Hepes pH 7,0; 0,01% NP40; 1x Complete; 0,05% BSA] für 30 min vorinkubiert. Anschließend wird die Kinase-Reaktion durch Zugabe von 3 µl Substratlösung [16,7 mM Adenosintriphosphate (ATP) und 1,4 µM Substratpeptid (Biotin-Ttds- KKLNRTLSFAEPG -NH2)] in Arbeitspuffer gestartet, und nach 30 min durch Zugabe einer Abstopp-Lösung (100 mM EDTA, 100 mM Hepes pH 7,5, 800 mM Potassiumfluoride, 0,12% BSA, 0,4 µM SA-XLent (0,05 µM, von CIS bio international, Marcoule, Frankreich), Eu^3+ Cryptate-conjugated Rabbit anti-Mouse IgG (1,5 nM; ein mit Europiumkryptat markierter Anti-Maus-IgG-Antikörper von CIS bio international, Marcoule, Frankreich), 1 nM Anti-phospho-Serine Kinase (ein phospho-spezifischer Antikörper von Upstate Biotechnology, Dundee, Schottland), gestoppt, und bei 4°C über Nacht inkubiert. Danach wird die Menge des phosphorylierten Substratpeptids durch Messung des Resonanzenergietransfers vom Europium-markierten Antikörperkomplex zum Streptavidine-XLent bestimmt. Zu diesem Zweck wird die Fluoreszenzemission bei 620 nm und 665 nm nach Anregung bei 350 nm in einem HTRF-Messgerät, z. B. Rubystar (BMG Labtechnologies, Offenburg, Deutschland) oder Viewlux (Perkin-Elmer), bestimmt. Das Verhältnis der Emissionen bei 665 nm und bei 620 nm wird als Maß für die Menge des phosphorylierten Substratpeptids verwendet. Die Daten werden normalisiert (Enzymreaktion ohne Inhibitor = 0 % Inhibition, alle anderen Assaykomponenten, aber kein Enzym = 100 % Inhibition), und IC50-Werte werden durch einen 4 Parameter-Fit mit einer hauseigenen Software berechnet.

T1 sequence (P53350 33-345): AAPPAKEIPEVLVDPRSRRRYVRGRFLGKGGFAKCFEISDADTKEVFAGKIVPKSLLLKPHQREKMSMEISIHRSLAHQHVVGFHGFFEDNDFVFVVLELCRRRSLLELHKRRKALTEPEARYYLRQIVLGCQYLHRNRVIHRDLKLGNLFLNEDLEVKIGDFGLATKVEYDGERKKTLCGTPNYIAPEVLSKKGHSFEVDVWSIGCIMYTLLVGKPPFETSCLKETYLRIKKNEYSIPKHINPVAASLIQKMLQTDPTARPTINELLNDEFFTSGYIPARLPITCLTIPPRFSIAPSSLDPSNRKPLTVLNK

IC50 [1]: 6e-07 M
IC50 [2]: 9e-07 M
IC50 [3]: 7e-07 M
IC50 [4]: 1.1e-07 M
SMILES: CCn1c(=C(C#N)C(=O)NCC(F)(F)F)sc(=CNc2cccc(CCN3CCCC3)c2)c1=O [Beispiel 30 aus PCT/EP2005/013418, reference compound]
